Patent US5631265A, “8-substituted tetrahydro-beta-carbolines” (Eli Lilly and Company, priority 1995, dated 1997)
Where two headings read alike, the source gives them in different places.

How the values were obtained:
[1] = target: T1, cloned rat 5-HT2B receptor (Rattus norvegicus, UniProt P30994); assay: Radioligand binding, [3H]5-HT, cloned rat 5-HT2B receptor (Table I)
T1 construct: expressed in transfected cells
Description: Radioligand Binding Studies
Membrane preparation from transformed cells. Suspension cells expressing the cloned rat 5-HT2B receptor were harvested by centrifugation at 2,200 ×g for 15 min at 4° C. Kursar, J. D., D. L. Nelson, D. B. Wainscott, M. L. Cohen, and M. Baez, Mol. Pharmacol., 42: 549-557 (1992). Membranes for the binding assays were prepared by vortexing the pellet in 50 mM Tris-HCl, pH 7.4 (0.5×10^9 cells/30 ml). The tissue suspension was then centrifuged at 39,800 ×g for 10 min at 4° C. This procedure was repeated for a total of three washes, with a 10 minute incubation at 37° C. between the first and second wash. The final pellet was homogenized in 67 mM Tris-HCl, pH 7.4 (at 20-40 and 12.5 million cells/ml, original cell number, for cells expressing low and relatively high levels of the 5-HT2B receptor, respectively) using a Tissumizer (Tekmar, Cincinnati, Ohio), setting 65 for 15 seconds.
(§1) [^3 H]5-HT binding studies. Binding assays were automated using a Biomek 1000 (Beckman instruments, Fullerton, Calif.) and were performed in triplicate in 0.8 ml total volume. Membrane suspension, 200 μl, (0.04-0.27 mg protein) and 200 μl of drug dilution in water were added to 400 μl of 67 mM Tris-HCl, pH 7.4, containing [^3 H]5-HT, pargyline, CaCl2, and L-ascorbic acid. Final concentrations of pargyline, CaCl2 and L-ascorbic acid were 10 μM, 3 mM and 0.1%, respectively. Tubes were incubated at 37° C. for 15 min or at 0° C. for 2 hours (binding equilibria were verified for both of these conditions), then rapidly filtered using a Brandel cell harvester (Model MB-48R; Brandel, Gaithersburg, Md.) through Whatman GF/B filters which had been presoaked in 0.5% polyethylenimine and precooled with ice-cold 50 mM Tris-HCl, pH 7.4. The filters were then washed rapidly four times with one ml ice-cold 50 mM Tris-HCl, pH 7.4. The amount of [^3 H]5-HT trapped on the filters was determined by liquid scintillation spectrometry (Ready Protein and Beckman automated using a Biomek 1000 (Beckman Instruments, Fullerton, Calif.) and were performed in triplicate in 0.8 ml total volume. Membrane suspension, 200 μl, (0.04-0.27 mg protein) and 200 μl of drug dilution in water were added to 400 μl of 67 mM Tris-HCl, pH 7.4, containing [^3 H]5-HT, pargyline, CaCl2, and L-ascorbic acid. Final concentrations of pargyline, CaCl2 and L-ascorbic acid were 10 μM, 3 mM and 0.1%, respectively. Tubes were incubated at 37° C. for 15 min or at 0° C. for 2 hours (binding equilibria were verified for both of these conditions), then rapidly filtered using a Brandel cell harvester (Model MB-48R; Brandel, Gaithersburg, Md.) through Whatman GF/B filters which had been presoaked in 0.5% polyethylenimine and precooled with ice-cold 50 mM Tris-HCl, pH 7.4. The filters were then washed rapidly four times with one ml ice-cold 50 mM Tris-HCl, pH 7.4. The amount of [^3 H]5-HT trapped on the filters was determined by liquid scintillation spectrometry (Ready Protein and Beckman determined for best fit to a one-site or a two-site binding model using a partial E-test. De Lean, A., A. A. Hancock, and R. J. Lefkowitz, Mol. Pharmacol., 21:5-16 (1981). The following equation was used for a one-site binding model, [formula] where Bound=amount of [^3 H]5-HT specifically bound, Bmax =maximum number of binding sites, Kd =equilibrium dissociation constant and [L]=free concentration of [^3 H]5-HT, or a two-site binding model, [formula] where Bound=amount of [^3 H]5-HT specifically bound, Bmax1 =maximum number of high affinity binding sites, Bmax2 =maximum number of low affinity binding sites, Kd1 =equilibrium dissociation constant for the high affinity site, Kd2 =equilibrium dissociation constant for the low affinity site and [L]=free concentration of [^3 H]5-HT. […]

[2] = target: T2, 5-HT2C receptor (Rattus norvegicus, UniProt P08909); assay: Radioligand binding, Rat 2C (Table I)
T2 sequence (P08909 33-460): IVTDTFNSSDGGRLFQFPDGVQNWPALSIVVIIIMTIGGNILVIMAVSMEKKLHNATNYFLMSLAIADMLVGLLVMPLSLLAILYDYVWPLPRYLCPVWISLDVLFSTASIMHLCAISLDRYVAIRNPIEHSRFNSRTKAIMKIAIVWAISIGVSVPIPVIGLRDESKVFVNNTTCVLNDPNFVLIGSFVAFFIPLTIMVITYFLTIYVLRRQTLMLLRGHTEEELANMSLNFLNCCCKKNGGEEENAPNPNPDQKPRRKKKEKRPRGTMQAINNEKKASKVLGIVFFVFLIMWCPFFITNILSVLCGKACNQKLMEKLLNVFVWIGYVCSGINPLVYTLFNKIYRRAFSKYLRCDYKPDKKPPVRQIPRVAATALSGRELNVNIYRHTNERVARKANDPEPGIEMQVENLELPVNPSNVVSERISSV
Description: as §1, with “7.4.” for “7.4. The filters were then washed rapidly four times with one ml ice-cold 50 mM Tris-HCl, pH 7.4. The amount of [^3 H]5-HT trapped on the filters was determined by liquid scintillation spectrometry (Ready Protein and Beckman determined for best fit to a one-site or a two-site binding model using a partial E-test. De Lean, A., A. A. Hancock, and R. J. Lefkowitz, Mol. Pharmacol., 21:5-16 (1981). The following equation was used for a one-site binding model, [formula] where Bound=amount of [^3 H]5-HT specifically bound, Bmax =maximum number of binding sites, Kd =equilibrium dissociation constant and [L]=free concentration of [^3 H]5-HT, or a two-site binding model, [formula] where Bound=amount of [^3 H]5-HT specifically bound, Bmax1 =maximum number of high affinity binding sites, Bmax2 =maximum number of low affinity binding sites, Kd1 =equilibrium dissociation constant for the high affinity site, Kd2 =equilibrium dissociation constant for the low affinity site and [L]=free concentration of [^3 H]5-HT.”
(§2) Compounds of this invention were tested using the described in vitro assay. Results of the radioligand binding experiments are illustrated in Table I. The values reported in Table I are expressed as Ki calculated as described infra.

[3] = target: T3, 5-HT2C receptor (Homo sapiens, UniProt P28335); assay: Radioligand binding, Human 2C (Table I)
T3 sequence (P28335 33-458): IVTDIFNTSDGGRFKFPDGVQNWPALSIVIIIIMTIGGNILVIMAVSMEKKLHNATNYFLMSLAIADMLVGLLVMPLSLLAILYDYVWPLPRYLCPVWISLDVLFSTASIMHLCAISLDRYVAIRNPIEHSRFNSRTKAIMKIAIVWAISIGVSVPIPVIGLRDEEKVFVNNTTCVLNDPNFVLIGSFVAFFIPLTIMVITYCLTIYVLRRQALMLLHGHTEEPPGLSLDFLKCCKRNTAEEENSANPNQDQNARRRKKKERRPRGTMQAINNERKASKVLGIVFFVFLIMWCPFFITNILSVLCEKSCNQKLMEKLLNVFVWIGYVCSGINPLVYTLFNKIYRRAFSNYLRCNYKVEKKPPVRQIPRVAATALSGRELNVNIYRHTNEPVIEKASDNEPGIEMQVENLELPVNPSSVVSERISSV
Description: as §1, with “7.4.” for “7.4. The filters were then washed rapidly four times with one ml ice-cold 50 mM Tris-HCl, pH 7.4. The amount of [^3 H]5-HT trapped on the filters was determined by liquid scintillation spectrometry (Ready Protein and Beckman determined for best fit to a one-site or a two-site binding model using a partial E-test. De Lean, A., A. A. Hancock, and R. J. Lefkowitz, Mol. Pharmacol., 21:5-16 (1981). The following equation was used for a one-site binding model, [formula] where Bound=amount of [^3 H]5-HT specifically bound, Bmax =maximum number of binding sites, Kd =equilibrium dissociation constant and [L]=free concentration of [^3 H]5-HT, or a two-site binding model, [formula] where Bound=amount of [^3 H]5-HT specifically bound, Bmax1 =maximum number of high affinity binding sites, Bmax2 =maximum number of low affinity binding sites, Kd1 =equilibrium dissociation constant for the high affinity site, Kd2 =equilibrium dissociation constant for the low affinity site and [L]=free concentration of [^3 H]5-HT.”
as §2

[4] = target: 5-HT2B receptor (Homo sapiens, UniProt P41595); assay: Radioligand binding, Human 2B (Table I)
5-HT2B receptor, sequence (P41595 whole entry): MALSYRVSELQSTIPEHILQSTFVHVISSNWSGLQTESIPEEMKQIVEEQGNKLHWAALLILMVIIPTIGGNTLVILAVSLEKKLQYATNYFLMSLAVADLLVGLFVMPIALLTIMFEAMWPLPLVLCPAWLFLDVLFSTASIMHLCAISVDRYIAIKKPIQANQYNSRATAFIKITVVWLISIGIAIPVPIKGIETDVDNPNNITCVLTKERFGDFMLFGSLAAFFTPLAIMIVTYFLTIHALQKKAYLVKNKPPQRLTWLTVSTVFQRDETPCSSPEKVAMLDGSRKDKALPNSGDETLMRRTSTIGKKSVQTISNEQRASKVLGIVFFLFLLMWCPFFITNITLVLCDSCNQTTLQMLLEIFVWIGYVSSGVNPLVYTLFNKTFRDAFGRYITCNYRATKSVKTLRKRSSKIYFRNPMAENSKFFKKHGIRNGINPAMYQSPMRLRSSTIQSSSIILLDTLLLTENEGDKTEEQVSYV
Description: [^3 H]5-HT binding studies. Binding assays were automated using a Biomek 1000 (Beckman instruments, Fullerton, Calif.) and were performed in triplicate in 0.8 ml total volume. Membrane suspension, 200 μl, (0.04-0.27 mg protein) and 200 μl of drug dilution in water were added to 400 μl of 67 mM Tris-HCl, pH 7.4, containing [^3 H]5-HT, pargyline, CaCl2, and L-ascorbic acid. Final concentrations of pargyline, CaCl2 and L-ascorbic acid were 10 μM, 3 mM and 0.1%, respectively. […] The amount of [^3 H]5-HT trapped on the filters was determined by liquid scintillation spectrometry (Ready Protein and Beckman automated using a Biomek 1000 (Beckman Instruments, Fullerton, Calif.) and were performed in triplicate in 0.8 ml total volume. Membrane suspension, 200 μl, (0.04-0.27 mg protein) and 200 μl of drug dilution in water were added to 400 μl of 67 mM Tris-HCl, pH 7.4, containing [^3 H]5-HT, pargyline, CaCl2, and L-ascorbic acid. Final concentrations of pargyline, CaCl2 and L-ascorbic acid were 10 μM, 3 mM and 0.1%, respectively. Tubes were incubated at 37° C. for 15 min or at 0° C. for 2 hours (binding equilibria were verified for both of these conditions), then rapidly filtered using a Brandel cell harvester (Model MB-48R; Brandel, Gaithersburg, Md.) through Whatman GF/B filters which had been presoaked in 0.5% polyethylenimine and precooled with ice-cold 50 mM Tris-HCl, pH 7.4. […]

[5] = cloned rat 5-HT2B receptor, [3H]5-HT, Ki from IC50 by Cheng-Prusoff, read-out: Ki Rat 2B
[6] = Rat 2C, Ki from IC50 by Cheng-Prusoff, read-out: Ki Rat 2C
[7] = Human 2C, Ki from IC50 by Cheng-Prusoff, read-out: Ki Human 2C

T1 sequence (P30994 whole entry): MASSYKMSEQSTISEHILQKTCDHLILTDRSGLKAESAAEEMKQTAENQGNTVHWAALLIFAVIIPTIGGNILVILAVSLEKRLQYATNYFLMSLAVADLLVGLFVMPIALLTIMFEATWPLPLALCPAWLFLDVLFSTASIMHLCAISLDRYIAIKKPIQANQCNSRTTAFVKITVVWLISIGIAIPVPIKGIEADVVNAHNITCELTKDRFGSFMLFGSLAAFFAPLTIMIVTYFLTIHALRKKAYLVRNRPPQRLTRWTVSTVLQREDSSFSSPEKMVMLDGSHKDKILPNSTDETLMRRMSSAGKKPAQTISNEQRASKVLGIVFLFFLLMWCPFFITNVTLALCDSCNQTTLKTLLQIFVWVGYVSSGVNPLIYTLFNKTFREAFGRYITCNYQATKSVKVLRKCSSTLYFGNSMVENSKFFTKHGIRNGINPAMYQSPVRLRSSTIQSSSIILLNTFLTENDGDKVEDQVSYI

Row | SMILES | Ki [1] [nM] | Ki [1, 5] [nM] | further results
1 | COc1cccc2c3c([nH]c12)CN(C)CC3 [Example 4, 8-methoxy-2(N)-methyl-1,2,3,4-tetrahydro-9H-pyrido[3,4b]-indole] | 71.7 |  | 
2 | Brc1cccc2c3c([nH]c12)CNCC3 [Example 10, 8-bromo-1,2,3,4-tetrahydro-9H-pyrido[3,4b]-indole] | 6.2 |  | Ki [2]: 22.4 nM; Ki [3]: 13.2 nM; Ki [4]: 9.68 nM
3 | Fc1cc(F)c2[nH]c3c(c2c1)CCNC3 [Example 9, 6,8-difluoro-1,2,3,4-tetrahydro-9H-pyrido[3,4b]-indole] | 57.9 |  | 
4 | Cc1ccc2c3c([nH]c2c1C)CNCC3 [Example 7, 7,8-dimethyl-1,2,3,4-tetrahydro-9H-pyrido[3,4b]-indole] |  | 15.8 | 
5 | Cc1ccc2c3c([nH]c2c1Br)CNCC3 [Example 1, 7-methyl-8-bromo-1,2,3,4-tetrahydro-9H-pyrido[3,4b]-indole] |  | 3.17 | Ki [2, 6]: 14.2 nM; Ki [3, 7]: 18.2 nM
6 | CCCN1CCc2c([nH]c3c(OC)cccc23)C1 [Example 3, 8-methoxy-2(N)-propy1,2,3,4-tetrahydro-9H-pyrido[3,4b]-indole] | 114 |  | 
7 | COc1cccc2c3c([nH]c12)CNCC3 [Example 2, 8-methoxy-1,2,3,4-tetrahydro-9H-pyrido[3,4b]-indole] | 34.5 |  | 
8 | CN1CCc2c([nH]c3ccc(O)cc23)C1 [Example 6] |  | 4610 | 
9 | Cc1cc(Br)c2[nH]c3c(c2c1)CCNC3 [Example 8, 6-methyl-8-bromo-1,2,3,4-tetrahydro-9H-pyrido[3,4b]-indole] |  | 14 | Ki [2, 6]: 34.9 nM; Ki [3, 7]: 38.6 nM; Ki ([4]; Human 2B, Ki from IC50 by Cheng-Prusoff, read-out: Ki Human 2B): 16.4 nM
10 | COc1cccc2c3c([nH]c12)CN(CC1CC1)CC3 [Example 5, 8-methoxy-2(N)-cyclopropylmethyl-1,2,3,4-tetrahydro-9H-pyrido[3,4b]-indole] | 97.5 |  | 
